The results in this text go back to US20240316047A1, “INHIBITORS OF RNA HELICASE DHX9 AND USES THEREOF” (ACCENT THERAPEUTICS, INC., priority 2022, published 2024).

The target of the experiment is Human recombinant DHX9 protein (Homo sapiens (Human), UniProt Q08211). Put plainly: DHX9 ATPase assay (ADP-Glo). As to conditions: for IC50: read-out: DHX9 Biochemical Inflection Point. The experiment is classed as biochemical.
Chain of Human recombinant DHX9 protein (Q08211 whole entry): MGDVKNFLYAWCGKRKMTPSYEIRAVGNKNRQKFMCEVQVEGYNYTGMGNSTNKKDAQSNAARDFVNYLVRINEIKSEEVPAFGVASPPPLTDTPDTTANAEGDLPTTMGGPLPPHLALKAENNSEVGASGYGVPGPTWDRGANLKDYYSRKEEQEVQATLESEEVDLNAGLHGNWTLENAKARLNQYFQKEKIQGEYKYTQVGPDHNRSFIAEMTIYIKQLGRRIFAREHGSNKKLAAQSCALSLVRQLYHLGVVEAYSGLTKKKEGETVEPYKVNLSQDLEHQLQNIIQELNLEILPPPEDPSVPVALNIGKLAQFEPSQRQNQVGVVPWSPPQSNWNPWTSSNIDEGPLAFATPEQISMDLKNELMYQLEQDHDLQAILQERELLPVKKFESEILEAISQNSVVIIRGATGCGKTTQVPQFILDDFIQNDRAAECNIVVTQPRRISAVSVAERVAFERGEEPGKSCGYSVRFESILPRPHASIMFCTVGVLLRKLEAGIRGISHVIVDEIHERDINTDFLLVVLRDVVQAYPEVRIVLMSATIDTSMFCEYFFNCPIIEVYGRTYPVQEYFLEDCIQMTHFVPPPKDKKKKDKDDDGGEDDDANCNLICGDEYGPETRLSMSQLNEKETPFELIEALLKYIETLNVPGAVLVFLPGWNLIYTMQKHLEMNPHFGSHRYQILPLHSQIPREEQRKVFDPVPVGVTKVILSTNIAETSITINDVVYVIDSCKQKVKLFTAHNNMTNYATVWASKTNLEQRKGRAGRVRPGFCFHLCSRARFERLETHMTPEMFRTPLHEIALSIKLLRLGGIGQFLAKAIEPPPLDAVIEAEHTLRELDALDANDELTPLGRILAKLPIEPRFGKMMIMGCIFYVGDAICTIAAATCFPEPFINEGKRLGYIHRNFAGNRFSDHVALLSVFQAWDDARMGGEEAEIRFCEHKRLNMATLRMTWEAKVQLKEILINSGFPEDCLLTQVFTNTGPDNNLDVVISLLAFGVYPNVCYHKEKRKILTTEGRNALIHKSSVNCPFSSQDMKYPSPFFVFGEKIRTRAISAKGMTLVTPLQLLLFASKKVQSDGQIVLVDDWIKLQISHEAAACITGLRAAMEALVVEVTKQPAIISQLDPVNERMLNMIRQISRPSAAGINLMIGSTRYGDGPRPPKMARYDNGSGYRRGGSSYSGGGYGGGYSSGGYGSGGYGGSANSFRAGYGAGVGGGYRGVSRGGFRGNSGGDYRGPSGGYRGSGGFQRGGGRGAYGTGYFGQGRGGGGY

`CS(=O)(=O)Nc1cc(Cl)cc(NC(=O)c2cnn(-c3ncccc3C#N)c2)c1` [Example 46]: the “DHX9 Biochemical Max Inhibition” value stood at 57.2% and the IC50 came to 47.3 nM.

In the case of `CS(=O)(=O)Nc1cc(Cl)cc(NC(=O)c2cnn(-c3ncccc3C(F)(F)F)c2)c1` [Example 47], the “DHX9 Biochemical Max Inhibition” value stood at 64.7% and the IC50 is 269 nM.

As to `CS(=O)(=O)Nc1cc(Br)cc(NC(=O)c2cnn(C3CCCCC3)c2)c1` [Example 48], the “DHX9 Biochemical Max Inhibition” value worked out at 54.1% and the IC50 is 93.1 nM.

Regarding `Cc1cccnc1-n1cc(C(=O)Nc2cc(Br)cc(NS(C)(=O)=O)c2)cn1` [Example 49], the “DHX9 Biochemical Max Inhibition” value came out at 58.6% and the IC50 stood at 49.7 nM.

Regarding `CS(=O)(=O)Nc1cc(Br)cc(NC(=O)c2cnn(-c3ncccn3)c2)c1` [Example 50, N-(3-bromo-5-(methylsulfonamido)phenyl)-1-(pyrimidin-2-yl)-1H-pyrazole-4-carboxamide], the “DHX9 Biochemical Max Inhibition” value is given as 55.5% and the IC50 is 45 nM.

For the compound `CS(=O)(=O)Nc1cc(Br)cc(NC(=O)c2cnn(-c3ccccc3OCc3ccccc3)c2)c1` [Example 51], the “DHX9 Biochemical Max Inhibition” value is given as 61.1% and the IC50 came to 145 nM.

As to `CS(=O)(=O)Nc1cc(Br)cc(NC(=O)c2cnn(-c3cccc(C#N)c3)c2)c1` [Example 52], the “DHX9 Biochemical Max Inhibition” value stood at 37.9% and the IC50 was determined as 198 nM.

Consider `Cc1ccc(C#N)cc1-n1cc(C(=O)Nc2cc(Br)cc(NS(C)(=O)=O)c2)cn1` [Example 53], for which the “DHX9 Biochemical Max Inhibition” value stood at 52.2% and the IC50 was 1910 nM.

As for `Cc1cccnc1-n1cc(C(=O)Nc2cc(Cl)cc(NS(C)(=O)=O)c2)cn1` [Example 54], the “DHX9 Biochemical Max Inhibition” value worked out at 66.6% and the IC50 turned out to be 65.6 nM.

Consider `CS(=O)(=O)Nc1cc(Br)cc(NC(=O)c2cnn(-c3ccc(N4CCOCC4)cn3)c2)c1` [Example 55], for which the “DHX9 Biochemical Max Inhibition” value was 48.6% and the IC50 is 9.9 nM.

With `CS(=O)(=O)Nc1cc(Br)cc(NC(=O)c2cnn(-c3cccc(C(F)F)n3)c2)c1` [Example 56], the “DHX9 Biochemical Max Inhibition” value is reported as 48.8% and the IC50 amounted to 197 nM.

For the compound `CS(=O)(=O)Nc1cc(Br)cc(NC(=O)c2cnn(-c3cccc(OC(F)F)n3)c2)c1` [Example 57], the “DHX9 Biochemical Max Inhibition” value is reported as 45.8% and the IC50 was determined as 14600 nM.

Consider `CS(=O)(=O)Nc1cc(Br)cc(NC(=O)c2cnn(-c3ccccc3C=O)c2)c1` [Example 58], for which the “DHX9 Biochemical Max Inhibition” value was found to be 44.4% and the IC50 turned out to be 84.9 nM.

Take `Cc1cc(C(=O)Nc2cc(Cl)cc(NS(C)(=O)=O)c2)cn1-c1ncccn1` [Example 59]: the “DHX9 Biochemical Max Inhibition” value is reported as 77.5% and the IC50 was found to be 12.7 nM.

Consider `CS(=O)(=O)Nc1cc(Br)cc(NC(=O)c2cc(-n3cccn3)cs2)c1` [Example 60], for which the “DHX9 Biochemical Max Inhibition” value stood at 63% and the IC50 came out at 7.8 nM.

Take `CC(Oc1cccnc1-n1cc(C(=O)Nc2cc(Cl)cc(NS(C)(=O)=O)c2)cn1)c1ccccc1` (centres unmarked) [Example 62]: the “DHX9 Biochemical Max Inhibition” value was 58.4% and the IC50 amounted to 211 nM.

In the case of `CS(=O)(=O)Nc1cc(Cl)cc(NC(=O)c2cnn(-c3ncccc3OCc3ccccn3)c2)c1` [Example 63], the “DHX9 Biochemical Max Inhibition” value was 66.2% and the IC50 is 83.9 nM.

With `CS(=O)(=O)Nc1cc(Cl)cc(NC(=O)c2cnn(-c3ncccc3OCc3ccncc3)c2)c1` [Example 64], the “DHX9 Biochemical Max Inhibition” value is 61.8% and the IC50 came out at 59.9 nM.

For `CS(=O)(=O)Nc1cc(Cl)cc(NC(=O)c2cnn(-c3ncccc3OCc3cccc(F)c3)c2)c1` [Example 65], the “DHX9 Biochemical Max Inhibition” value was found to be 72.6% and the IC50 came to 5.5 nM.

As for `CS(=O)(=O)Nc1cc(Cl)cc(NC(=O)c2cnn(-c3ncccc3OCc3cnco3)c2)c1` [Example 66], the “DHX9 Biochemical Max Inhibition” value came out at 62.9% and the IC50 amounted to 56.6 nM.

Turning to `CS(=O)(=O)Nc1cc(Br)cc(NC(=O)c2cnn(-c3cc(C#N)ccc3OCc3ccccc3)c2)c1` [Example 67], the “DHX9 Biochemical Max Inhibition” value is recorded as 54% and the IC50 came out at 154 nM.

Take `CS(=O)(=O)Nc1cc(Cl)cc(NC(=O)c2cnn(-c3ncccc3OCc3ccccc3)c2)c1` [Example 68]: the “DHX9 Biochemical Max Inhibition” value worked out at 68.7% and the IC50 stood at 23.8 nM.

Consider `CS(=O)(=O)Nc1cc(Cl)cc(NC(=O)c2cnn(-c3ncccc3OCc3ccc(F)cc3)c2)c1` [Example 69], for which the “DHX9 Biochemical Max Inhibition” value is given as 62.3% and the IC50 was determined as 113 nM.

Turning to `CS(=O)(=O)Nc1cc(Cl)cc(NC(=O)c2cnn(-c3ncccc3OCc3cccc(Cl)c3)c2)c1` [Example 70], the “DHX9 Biochemical Max Inhibition” value turned out to be 78.9% and the IC50 was 8.5 nM.

On to `CS(=O)(=O)Nc1cc(F)cc(NC(=O)c2cc(Br)cs2)c1` [Example 71, 4-bromo-N-(3-fluoro-5-(methylsulfonamido)phenyl)thiophene-2-carboxamide], for which the “DHX9 Biochemical Max Inhibition” value is on record as 77.8% and the IC50 amounted to 171 nM.

As to `CCS(=O)(=O)Nc1cc(F)cc(NC(=O)c2cc(Br)cs2)c1` [Example 72], the “DHX9 Biochemical Max Inhibition” value came to 67.2% and the IC50 turned out to be 378 nM.

As to `CS(=O)(=O)Nc1cc(F)cc(NC(=O)c2cc(-c3ccccc3)cs2)c1` [Example 73], the “DHX9 Biochemical Max Inhibition” value was found to be 63% and the IC50 is 189 nM.

Turning to `CCS(=O)(=O)Nc1cc(F)cc(NC(=O)c2cc(-c3ccccc3)cs2)c1` [Example 74], the “DHX9 Biochemical Max Inhibition” value came out at 57.7% and the IC50 was found to be 255 nM.

As for `CS(=O)(=O)Nc1cc(Cl)cc(NC(=O)c2cc(-c3ccccc3)cs2)c1` [Example 75], the “DHX9 Biochemical Max Inhibition” value was determined as 55.5%.

Regarding `CS(=O)(=O)Nc1cc(Br)cc(NC(=O)c2cc(-c3cccnc3)cs2)c1` [Example 78], the “DHX9 Biochemical Max Inhibition” value worked out at 56.2% and the IC50 stood at 31.9 nM.

Take `CCn1cc(C(=O)Nc2cc(Cl)cc(NS(C)(=O)=O)c2)cc1-c1ccccc1` [Example 79, N-(3-chloro-5-(methylsulfonamido)phenyl)-1-ethyl-5-phenyl-1H-pyrrole-3-carboxamide]: the “DHX9 Biochemical Max Inhibition” value was found to be 67.8% and the IC50 turned out to be 146 nM.

Regarding `CS(=O)(=O)Nc1cc(Cl)cc(NC(=O)c2cc(-c3ccccc3)n(CC(F)(F)F)c2)c1` [Example 80], the “DHX9 Biochemical Max Inhibition” value came out at 71.2% and the IC50 amounted to 493 nM.

`Cc1cccnc1-c1cc(C(=O)Nc2cc(Cl)cc(NS(C)(=O)=O)c2)cn1C` [Example 81]: the “DHX9 Biochemical Max Inhibition” value worked out at 66.7%.

As for `Cn1cc(C(=O)Nc2cc(Cl)cc(NS(C)(=O)=O)c2)cc1-c1ncccn1` [Example 82], the “DHX9 Biochemical Max Inhibition” value came to 69.4% and the IC50 worked out at 9.2 nM.

Regarding `Cn1cc(C(=O)Nc2cc(Cl)cc(NS(C)(=O)=O)c2)cc1Br` [Example 83, 5-bromo-N-(3-chloro-5-(methylsulfonamido)phenyl)-1-methyl-1H-pyrrole-3-carboxamide], the “DHX9 Biochemical Max Inhibition” value was found to be 60.7% and the IC50 came to 47.8 nM.

Take `Cc1cccnc1-c1cc(C(=O)Nc2cc(Br)cc(NS(C)(=O)=O)c2)cn1C` [Example 84, N-(3-bromo-5-(methylsulfonamido)phenyl)-1-methyl-5-(3-methylpyridin-2-yl)-1H-pyrrole-3-carboxamide]: the “DHX9 Biochemical Max Inhibition” value came out at 66.7% and the IC50 is 10.1 nM.

For the compound `Cc1cc(C(=O)Nc2cc(Br)cc(NS(C)(=O)=O)c2)cn1C1CCCCC1` [Example 85, N-(3-bromo-5-(methylsulfonamido)phenyl)-1-cyclohexyl-5-methyl-1H-pyrrole-3-carboxamide], the “DHX9 Biochemical Max Inhibition” value stood at 59.5% and the IC50 stood at 99 nM.

Consider `CC(=O)N1CCN(c2ccc(-n3cc(C(=O)Nc4cc(Br)cc(NS(C)(=O)=O)c4)cn3)nc2)CC1` [Example 86, 1-(5-(4-acetylpiperazin-1-yl)pyridin-2-yl)-N-(3-bromo-5-(methylsulfonamido)phenyl)-1H-pyrazole-4-carboxamide], for which the “DHX9 Biochemical Max Inhibition” value was 51.5% and the IC50 came out at 18.4 nM.

As to `CC(=O)N1CCN(c2cnc(-n3cc(C(=O)Nc4cc(Br)cc(NS(C)(=O)=O)c4)cn3)c(C)c2)CC1` [Example 87], the “DHX9 Biochemical Max Inhibition” value is on record as 55.7% and the IC50 was 26.1 nM.

As for `CN1CCN(c2ccc(-n3cc(C(=O)Nc4cc(Br)cc(NS(C)(=O)=O)c4)cn3)nc2)CC1=O` [Example 88], the “DHX9 Biochemical Max Inhibition” value came out at 54.2% and the IC50 was 7.1 nM.

As for `CN(C)C(=O)N1CCN(c2ccc(-n3cc(C(=O)Nc4cc(Cl)cc(NS(C)(=O)=O)c4)cn3)nc2)CC1` [Example 89], the “DHX9 Biochemical Max Inhibition” value worked out at 64.9% and the IC50 was 14.4 nM.

As for `CS(=O)(=O)Nc1cc(Cl)cc(NC(=O)c2cnn(-c3ccc(N4CCCC4=O)cn3)c2)c1` [Example 90], the “DHX9 Biochemical Max Inhibition” value is given as 61.5% and the IC50 was 24 nM.

Take `CS(=O)(=O)Nc1cc(Cl)cc(NC(=O)c2cnn(-c3cc(N4CCOCC4)ccn3)c2)c1` [Example 91]: the “DHX9 Biochemical Max Inhibition” value was determined as 59.7% and the IC50 was 27.9 nM.

Regarding `CC1CN(c2ccc(-n3cc(C(=O)Nc4cc(Cl)cc(NS(C)(=O)=O)c4)cn3)nc2)CCO1` (centres unmarked) [Example 92], the “DHX9 Biochemical Max Inhibition” value worked out at 61.1% and the IC50 came to 22.1 nM.

`Cc1cc(C(=O)Nc2cc(Cl)cc(NS(C)(=O)=O)c2)cn1-c1ccc(N2CCOCC2)cn1` [Example 93]: the “DHX9 Biochemical Max Inhibition” value is given as 70.6% and the IC50 turned out to be 1.7 nM.

On to `Cc1cc(C(=O)Nc2cc(Cl)cc(NS(C)(=O)=O)c2)cn1-c1ccc(N2CCN(C)C(=O)C2)cn1` [Example 94], for which the “DHX9 Biochemical Max Inhibition” value is listed as 72.4% and the IC50 was determined as 1.8 nM.

With `CS(=O)(=O)Nc1cc(Br)cc(NC(=O)c2cc(-c3ccccn3)n(CC#N)c2)c1` [Example 95, N-(3-bromo-5-methanesulfonamidophenyl)-1-(cyanomethyl)-5-(pyridin-2-yl)-1H-pyrrole-3-carboxamide], the “DHX9 Biochemical Max Inhibition” value is recorded as 59.2% and the IC50 was 20.5 nM.
